Source: ChEMBL document CHEMBL4330134, “Design, synthesis, and bioevaluation of a novel class of (E)-4-oxo-crotonamide derivatives as potent antituberculosis agents” (Bioorg Med Chem Lett, 2019)
≈ marks a conversion by molar mass, not a printed value.

Tested on: Mycobacterium tuberculosis
Test: Antimycobacterial activity against Mycobacterium tuberculosis H37Rv ATCC 27294 after 4 days by microplate Alamar blue assay
Format: functional
Settings: H37Rv ATCC 27294, 96 h

| Structure (SMILES) | MIC [µg/mL] |
| --- | --- |
| CCN(C)C(=O)/C=C/C(=O)c1ccccc1[N+](=O)[O-] | 0.24 (≈ 0.915 µM) |
| CCCN(CCC)C(=O)/C=C/C(=O)c1ccc(OCC)cc1 | 1.91 (≈ 6.3 µM) |
| CCN(C)C(=O)/C=C/C(=O)c1cccc(C(F)(F)F)c1 | > 2 |
| CCN(C)C(=O)/C=C/C(=O)c1cccc(OC)c1 | 1.88 (≈ 7.6 µM) |
| CC(C)(C)OC(=O)NCCOC(=O)/C=C/C(=O)c1ccc2c(c1)CCO2 | > 4 |
| CCOc1ccc(C(=O)/C=C/C(=O)N(C)CC)cc1 | 0.48 (≈ 1.84 µM) |
| CN(C)C(=O)/C=C/C(=O)c1cccc(C(F)(F)F)c1 | 1.95 (≈ 7.19 µM) |
| COc1ccc(C(=O)/C=C/C(=O)N(C)C)cc1 | 0.38 (≈ 1.63 µM) |
| CN(C)C(=O)/C=C/C(=O)c1cccc(F)c1 | 1.84 (≈ 8.32 µM) |
| CC(C)(C)OC(=O)NCCOC(=O)/C=C/C(=O)c1ccc(-c2ccccc2)cc1 | 1.23 (≈ 3.11 µM) |
| CCN(C)C(=O)/C=C/C(=O)c1cccc(Br)c1 | 1.52 (≈ 5.13 µM) |
| COc1ccccc1C(=O)/C=C/C(=O)N(C)C | 0.92 (≈ 3.94 µM) |
| CC(C)OC(=O)/C=C/C(=O)c1ccc2c(c1)CCO2 | 1.02 (≈ 3.92 µM) |
| CN(C)C(=O)/C=C/C(=O)c1ccccc1F | 0.95 (≈ 4.29 µM) |
| CN(C)C(=O)/C=C/C(=O)c1ccc(F)cc1 | 0.47 (≈ 2.12 µM) |
| COc1ccc(OC)c(C(=O)/C=C/C(=O)OCCNC(=O)OC(C)(C)C)c1 | > 4 |
| CC(C)OC(=O)/C=C/C(=O)c1ccc([N+](=O)[O-])cc1 | 0.5 (≈ 1.9 µM) |
| CCOc1ccc(C(=O)/C=C/C(=O)N(C)C)cc1 | 0.48 (≈ 1.94 µM) |
| CC(C)(C)OC(=O)NCCOC(=O)/C=C/C(=O)c1ccc([N+](=O)[O-])cc1 | > 4 |
| CCN(C)C(=O)/C=C/C(=O)c1ccc([N+](=O)[O-])cc1 | 1.7 (≈ 6.48 µM) |
| CCCN(CCC)C(=O)/C=C/C(=O)c1ccccc1F | 0.94 (≈ 3.39 µM) |
| CCCN(CCC)C(=O)/C=C/C(=O)c1ccccc1[N+](=O)[O-] | 1.24 (≈ 4.07 µM) |
| Cc1ccc(C(=O)/C=C/C(=O)OCCNC(=O)OC(C)(C)C)cc1 | > 4 |

| Structure (SMILES) | MIC [µg/mL] |
| --- | --- |
| CN(C)C(=O)/C=C/C(=O)c1ccccc1Cl | 0.84 (≈ 3.53 µM) |
| CN(C)C(=O)/C=C/C(=O)c1ccccc1[N+](=O)[O-] | 1.51 (≈ 6.08 µM) |
| CC(C)(C)OC(=O)NCCOC(=O)/C=C/C(=O)c1ccc2c(c1)OCO2 | > 4 |
| CCN(C)C(=O)/C=C/C(=O)c1ccc(-c2ccccc2)cc1 | 0.49 (≈ 1.67 µM) |
| CC(C)(C)OC(=O)NCCOC(=O)/C=C/C(=O)c1ccc(OCc2ccccc2)cc1 | 1.91 (≈ 4.49 µM) |
| CCCN(CCC)C(=O)/C=C/C(=O)c1cccc(Cl)c1 | 1.91 (≈ 6.5 µM) |
| CCN(C)C(=O)/C=C/C(=O)c1ccc(Cl)cc1Cl | > 2 |
| CC(C)(C)OC(=O)NCCOC(=O)/C=C/C(=O)C1CCCCC1 | > 4 |
| CCN(C)C(=O)/C=C/C(=O)c1ccccc1F | 0.24 (≈ 1.02 µM) |
| CCN(C)C(=O)/C=C/C(=O)c1ccc(OC)cc1 | 0.93 (≈ 3.76 µM) |
| CCN(C)C(=O)/C=C/C(=O)c1cccc(Cl)c1 | 0.97 (≈ 3.85 µM) |
| CN(C)C(=O)/C=C/C(=O)c1ccc(Br)cc1 | 0.25 (≈ 0.886 µM) |
| CC(C)OC(=O)/C=C/C(=O)c1ccc2c(c1)OCO2 | 0.87 (≈ 3.32 µM) |
| CCCN(CCC)C(=O)/C=C/C(=O)c1cccc(F)c1 | 0.96 (≈ 3.46 µM) |
| CCCN(CCC)C(=O)/C=C/C(=O)c1cccc([N+](=O)[O-])c1 | > 2 |
| CC(C)OC(=O)/C=C/C(=O)c1ccc(-c2ccccc2)cc1 | 0.24 (≈ 0.815 µM) |
| CCN(C)C(=O)/C=C/C(=O)c1ccccc1OC | 0.95 (≈ 3.84 µM) |
| CN(C)C(=O)/C=C/C(=O)c1ccc(Cl)cc1Cl | 0.41 (≈ 1.51 µM) |
| CCN(C)C(=O)/C=C/C(=O)c1ccc(Cl)cc1 | 0.24 (≈ 0.953 µM) |
| CN(C)C(=O)/C=C/C(=O)c1ccc(Cl)c(Cl)c1 | 0.84 (≈ 3.09 µM) |
| CCCN(CCC)C(=O)/C=C/C(=O)c1ccc(OC)cc1 | 1.89 (≈ 6.53 µM) |
| CN(C)C(=O)/C=C/C(=O)c1cccc([N+](=O)[O-])c1 | > 2 |
| CC(C)OC(=O)/C=C/C(=O)c1ccc(OCc2ccccc2)cc1 | 1.14 (≈ 3.51 µM) |

| Structure (SMILES) | MIC [µg/mL] |
| --- | --- |
| CC(C)(C)OC(=O)NCCOC(=O)/C=C/C(=O)c1ccc(Oc2ccccc2)cc1 | > 4 |
| CC(C)(C)OC(=O)NCCOC(=O)/C=C/C(=O)c1ccc(Br)cc1 | > 4 |
| CN(C)C(=O)/C=C/C(=O)c1ccc2c(c1)OCO2 | 0.79 (≈ 3.2 µM) |
| CC(C)OC(=O)/C=C/C(=O)c1ccc(Br)cc1 | 0.41 (≈ 1.38 µM) |
| COc1ccc(C(=O)/C=C/C(=O)OCCNC(=O)OC(C)(C)C)cc1 | > 4 |
| CCCN(CCC)C(=O)/C=C/C(=O)c1ccc(Cl)c(Cl)c1 | 0.88 (≈ 2.68 µM) |
| COc1ccc(C(=O)/C=C/C(=O)OCCNC(=O)OC(C)(C)C)cc1OC | > 4 |
| CC(C)OC(=O)/C=C/C(=O)C1CC1 | 0.68 (≈ 3.73 µM) |
| CC(=O)/C=C/C(=O)OC(C)C | 2.5 (≈ 16 µM) |
| CCCN(CCC)C(=O)/C=C/C(=O)c1ccc([N+](=O)[O-])cc1 | 1.89 (≈ 6.21 µM) |
| CCN(C)C(=O)/C=C/C(=O)c1ccc(Cl)c(Cl)c1 | 0.24 (≈ 0.839 µM) |
| CCN(C)C(=O)/C=C/C(=O)c1ccccc1Cl | 0.65 (≈ 2.58 µM) |
| CCN(C)C(=O)/C=C/C(=O)c1ccc(F)cc1 | 0.25 (≈ 1.06 µM) |
| CCN(C)C(=O)/C=C/C(=O)c1ccc2c(c1)OCO2 | > 2 |
| COc1cccc(C(=O)/C=C/C(=O)N(C)C)c1 | 1.62 (≈ 6.94 µM) |
| CC(=O)/C=C/C(=O)OCCNC(=O)OC(C)(C)C | > 4 |
| CCCN(CCC)C(=O)/C=C/C(=O)c1ccccc1OC | > 2 |
| CN(C)C(=O)/C=C/C(=O)c1cccc(Br)c1 | 0.96 (≈ 3.4 µM) |
| CCCN(CCC)C(=O)/C=C/C(=O)c1ccc(F)cc1 | 0.95 (≈ 3.43 µM) |
| CC(C)(C)OC(=O)NCCOC(=O)/C=C/C(=O)C1CC1 | 1.45 (≈ 5.12 µM) |
| CCCN(CCC)C(=O)/C=C/C(=O)c1cccc(C(F)(F)F)c1 | > 2 |
| CC(C)OC(=O)/C=C/C(=O)c1cccc2ccccc12 | 0.69 (≈ 2.57 µM) |
| CN(C)C(=O)/C=C/C(=O)c1ccc([N+](=O)[O-])cc1 | 0.93 (≈ 3.75 µM) |

| Structure (SMILES) | MIC [µg/mL] |
| --- | --- |
| CC(C)(C)OC(=O)NCCOC(=O)/C=C/C(=O)c1cccc2ccccc12 | > 4 |
| CCN(C)C(=O)/C=C/C(=O)c1cccc([N+](=O)[O-])c1 | > 2 |
| CC(C)OC(=O)/C=C/C(=O)c1ccc(Cl)cc1Cl | 1.01 (≈ 3.52 µM) |
| COc1ccccc1C(=O)/C=C/C(=O)OCCNC(=O)OC(C)(C)C | > 4 |
| CCCN(CCC)C(=O)/C=C/C(=O)c1ccc(Cl)cc1 | 1.67 (≈ 5.68 µM) |
| CCOc1ccc(C(=O)/C=C/C(=O)OCCNC(=O)OC(C)(C)C)cc1 | 1.45 (≈ 3.99 µM) |
| CC(C)(C)OC(=O)NCCOC(=O)/C=C/C(=O)c1ccco1 | > 4 |
| CCCN(CCC)C(=O)/C=C/C(=O)c1ccc(Cl)cc1Cl | > 2 |
| CCCN(CCC)C(=O)/C=C/C(=O)c1ccc(-c2ccccc2)cc1 | 1.4 (≈ 4.17 µM) |
| CCCN(CCC)C(=O)/C=C/C(=O)c1cccc(OC)c1 | > 2 |
| CC(C)OC(=O)/C=C/C(=O)c1ccc(Oc2ccccc2)cc1 | 1.69 (≈ 5.45 µM) |
| CC(C)(C)OC(=O)NCCOC(=O)/C=C/C(=O)c1ccccc1 | > 4 |
| CCCN(CCC)C(=O)/C=C/C(=O)c1ccccc1Cl | > 2 |
| CC(C)OC(=O)/C=C/C(=O)c1ccco1 | 0.65 (≈ 3.12 µM) |
| CN(C)C(=O)/C=C/C(=O)c1ccc(Cl)cc1 | 0.38 (≈ 1.6 µM) |
| CN(C)C(=O)/C=C/C(=O)c1cccc(Cl)c1 | 0.89 (≈ 3.74 µM) |
| COc1cccc(C(=O)/C=C/C(=O)OCCNC(=O)OC(C)(C)C)c1 | > 4 |
| CC(C)OC(=O)/C=C/C(=O)C1CCCCC1 | > 4 |
| CCN(C)C(=O)/C=C/C(=O)c1cccc(F)c1 | 0.48 (≈ 2.04 µM) |
| CC(C)(C)OC(=O)NCCOC(=O)/C=C/C(=O)c1ccc(Cl)cc1Cl | > 4 |
| CCCN(CCC)C(=O)/C=C/C(=O)c1cccc(Br)c1 | > 2 |
| CCCN(CCC)C(=O)/C=C/C(=O)c1ccc2c(c1)OCO2 | > 2 |
